In US8846951B2 (AbbVie Inc., priority 2009, dated 2014) one finds Emax and EC50 data, which are given here for 21 compounds.

Like-named read-outs stand apart in the source and are kept apart here. Where only a bound is given, the exact number is not on record here.

One test has as its target T1, 5HT2B receptors (Homo sapiens, UniProt P41595).
T1 construct: expressed in transfected cells; host or cells: CHO-K1 cells
Description: Human 5-HT2B functional high throughput screening assay in CHO-K1 cells (calcium flux). The test is classed as cell-based. The settings on record: for EC50: CHO-K1 cells, calcium flux. Put shortly: (§1)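 Frozen CHO-K1 cells overexpressing the receptor were plated, serum-starved overnight, then loaded with Ca4 dye plus 2.5 mM probenecid for 60 min at room temperature. FLIPR fluorescence (ex 480/em 530 nm, 25 °C) after compound addition was normalized to serotonin; EC50 and Emax came from 4-parameter logistic fits.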

In the next test the target is T2, 5HT2C receptors (Homo sapiens, UniProt P28335).
T2 sequence (P28335 33-458): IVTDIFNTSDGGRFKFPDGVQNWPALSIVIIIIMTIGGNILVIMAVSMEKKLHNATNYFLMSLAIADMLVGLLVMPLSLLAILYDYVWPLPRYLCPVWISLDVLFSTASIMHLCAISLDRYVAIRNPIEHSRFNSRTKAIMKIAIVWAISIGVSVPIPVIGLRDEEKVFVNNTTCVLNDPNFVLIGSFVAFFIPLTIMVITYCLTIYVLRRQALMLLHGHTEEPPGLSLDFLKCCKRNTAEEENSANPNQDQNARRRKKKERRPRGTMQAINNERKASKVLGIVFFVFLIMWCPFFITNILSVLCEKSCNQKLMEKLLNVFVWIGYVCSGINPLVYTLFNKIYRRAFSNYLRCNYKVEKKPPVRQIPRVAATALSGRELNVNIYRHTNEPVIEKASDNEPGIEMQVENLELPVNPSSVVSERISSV
Put plainly: Human 5-HT2C functional high throughput screening assay in CHO-K1 cells (calcium flux). The class given is cell-based. Also on record: expressed in transfected cells; host or cells: CHO-K1 cells. The following applies: for Emax: CHO-K1, 5-HT2C, maximum functional response as percentage relative to the effect of serotonin; for EC50: CHO-K1 cells, calcium flux. Put shortly:
as §1

Setting [1] is: 5-HT2B agonist activity, read-out: EC50.
Setting [2] is: 5-HT2B, maximum functional response as percentage relative to the effect of serotonin.
Setting [3] is: 5-HT2C agonist activity, read-out: EC50.

T1 sequence (P41595 whole entry): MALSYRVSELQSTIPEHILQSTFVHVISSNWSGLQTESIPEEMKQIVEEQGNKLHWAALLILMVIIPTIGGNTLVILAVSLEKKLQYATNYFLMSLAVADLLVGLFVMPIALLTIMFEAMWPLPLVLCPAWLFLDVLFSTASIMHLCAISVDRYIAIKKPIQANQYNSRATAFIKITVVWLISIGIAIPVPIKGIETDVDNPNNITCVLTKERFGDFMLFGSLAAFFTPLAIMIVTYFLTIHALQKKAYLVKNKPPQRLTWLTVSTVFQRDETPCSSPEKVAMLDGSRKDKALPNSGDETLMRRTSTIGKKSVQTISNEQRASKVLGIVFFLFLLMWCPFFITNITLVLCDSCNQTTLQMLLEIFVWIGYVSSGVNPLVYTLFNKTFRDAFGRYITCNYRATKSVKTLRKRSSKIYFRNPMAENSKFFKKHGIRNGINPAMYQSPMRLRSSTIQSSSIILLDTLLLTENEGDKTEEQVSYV

For `COc1ccc2c(c1)[C@H]1CNC[C@@H]1CCC2` (relative stereo) [Example 263, Trans-9-methoxy-1,2,3,3a,4,5,6,10b-octahydrobenzo[3,4]cyclohepta[1,2-c]pyrrole], the Emax was 100% on 5HT2B receptors (CHO-K1) and greater than 120% at 5HT2C receptors. Also, the EC50 on 5HT2B receptors (EC50, 5-HT2B agonist activity) is 20 nM; on 5HT2C receptors (EC50, 5-HT2C agonist activity), 100 nM.
In the case of `CNC(=O)c1cccc(-c2ccc3c(c2)C(=O)NC[C@@H]2CN(C)C[C@@H]32)c1` (relative stereo) [Example 382, N-Methyl-3-[Trans-2-methyl-6-oxo-1,2,3,3a,4,5,6,10b-octahydropyrrolo[3,4-d][2]benzazepin-8-yl]benzamide], the EC50 on 5HT2B receptors (setting [1]) was greater than 10000 nM; on 5HT2C receptors (setting [3]) it was 90 nM. The Emax entry at 5HT2B receptors (setting [2]) is “inactive”; at 5HT2C receptors (read-out: Emax), 100%.
`COc1ncc(-c2ccc3c(c2)C(=O)NC[C@@H]2CNC[C@@H]32)cn1` (relative stereo) [Example 178, Trans-8-(2-methoxypyrimidin-5-yl)-1,2,3,3a,4,5-hexahydrobenzo[e]pyrrolo[3,4-c]azepin-6(10bH)-one]: the Emax entry is “inactive” on 5HT2B receptors (setting [2]) and greater than 120% on 5HT2C receptors. Besides, the EC50 was greater than 10000 nM on 5HT2B receptors (EC50, 5-HT2B agonist activity) and 70 nM at 5HT2C receptors (EC50, 5-HT2C agonist activity).
Take `COc1ccc(-c2ccc3c(c2)C(=O)NC[C@@H]2CN(C)C[C@@H]32)cc1F` (relative stereo) [Example 316, Trans-8-(3-fluoro-4-methoxyphenyl)-2-methyl-2,3,3a,4,5,10b-hexahydropyrrolo[3,4-d][2]benzazepin-6(1H)-one]: the EC50 is greater than 10000 nM on 5HT2B receptors (setting [1]) and 7 nM at 5HT2C receptors (setting [3]). The results for the Emax result at 5HT2B receptors (setting [2]) and on 5HT2C receptors (read-out: Emax) were “inactive” and 80%, respectively.
Consider `CN1C[C@@H]2CNC(=O)c3cc(-c4ccc5c(c4)C(=O)CC5)ccc3[C@H]2C1` [Example 306, (3aS,10bS)-2-Methyl-8-(3-oxo-2,3-dihydro-1H-inden-5-yl)-2,3,3a,4,5,10b-hexahydropyrrolo[3,4-d][2]benzazepin-6(1H)-one], for which the EC50 on 5HT2B receptors (setting [1]) is greater than 10000 nM; on 5HT2C receptors (setting [3]), 10 nM. Moreover, the Emax result on 5HT2B receptors (setting [2]) was “inactive”; at 5HT2C receptors (read-out: Emax), 90%.
On to `CN1C[C@H]2CNC(=O)c3cc(C4=CCCC4)ccc3[C@@H]2C1` (relative stereo) [Example 201, Trans-8-cyclopentenyl-2-methyl-1,2,3,3a,4,5-hexahydrobenzo[e]pyrrolo[3,4-c]azepin-6(10bH)-one], for which the Emax entry was “inactive” at 5HT2B receptors (setting [2]) and 120% on 5HT2C receptors. Also, the concentration giving a half-maximal response (EC50) at 5HT2B receptors (EC50, 5-HT2B agonist activity) is greater than 10000 nM; at 5HT2C receptors (EC50, 5-HT2C agonist activity) it was 100 nM.
For the compound `CC(C)(C)c1ccc(S(=O)(=O)N2Cc3cccnc3[C@@H]3CNC[C@H]3C2)cc1` (relative stereo) [Example 344, Trans-6-[(4-tert-butylphenyl)sulfonyl]-5,6,7,7a,8,9,10,10a-octahydropyrido[3,2-c]pyrrolo[3,4-e]azepine], the concentration for a half-maximal effect (EC50) was greater than 10000 nM at 5HT2B receptors (setting [1]) and 90 nM at 5HT2C receptors (setting [3]). Also, the maximum response (Emax) entry on 5HT2B receptors (setting [2]) is “inactive”; on 5HT2C receptors (read-out: Emax), 85%.
For the compound `CN1C[C@H]2CNC(=O)c3cc(-c4ccccc4S(C)(=O)=O)ccc3[C@@H]2C1` (relative stereo) [Example 232, Trans-2-methyl-8-(2-(methylsulfonyl)phenyl)-1,2,3,3a,4,5-hexahydrobenzo[c]pyrrolo[3,4-e]azepin-6(10bH)-one], the EC50 on 5HT2B receptors (setting [1]) is greater than 10000 nM; on 5HT2C receptors (setting [3]), 3000 nM. The Emax result was “inactive” at 5HT2B receptors (setting [2]) and 30% at 5HT2C receptors (read-out: Emax).
Regarding `O=C1NC[C@@H]2CN(Cc3ccccc3)C[C@H]2c2cc3ccccc3cc21` (relative stereo) [Example 256, Trans-2-benzyl-1,2,3,3a,4,5-hexahydronaphtho[2,3-c]pyrrolo[3,4-e]azepin-6(12bH)-one], the half-maximal effective concentration (EC50) is greater than 10000 nM on 5HT2B receptors (setting [1]) and 100 nM at 5HT2C receptors (setting [3]). The Emax result on 5HT2B receptors (setting [2]) was “inactive”; at 5HT2C receptors (read-out: Emax), 90%.
As for `O=S(=O)(c1ccccc1OC(F)(F)F)N1Cc2cccnc2[C@@H]2CNC[C@H]2C1` (relative stereo) [Example 364, Trans-6-{[2-(trifluoromethoxy)phenyl]sulfonyl}-5,6,7,7a,8,9,10,10a-octahydropyrido[3,2-c]pyrrolo[3,4-e]azepine], the EC50 was 90 nM at 5HT2B receptors (setting [1]) and 100 nM on 5HT2C receptors (setting [3]). Besides, the Emax on 5HT2B receptors (CHO-K1, 5-HT2B, maximum functional response as percentage relative to the effect of serotonin, read-out: Emax) came out at 90%; at 5HT2C receptors (read-out: Emax), 85%.
Consider `CN1C[C@H]2CNC(=O)c3cc(-c4cccc(C=O)c4)ccc3[C@@H]2C1` (relative stereo) [Example 198, Trans-3-(2-methyl-6-oxo-1,2,3,3a,4,5,6,10b-octahydrobenzo[e]pyrrolo[3,4-c]azepin-8-yl)benzaldehyde], for which the EC50 at 5HT2B receptors (setting [1]) was greater than 10000 nM; at 5HT2C receptors (setting [3]), 9 nM. For the same compound, the results for the Emax result on 5HT2B receptors (setting [2]) and at 5HT2C receptors (read-out: Emax) were “inactive” and greater than 120%, respectively.
With `O=C1NC[C@@H]2CN(Cc3ccccc3)C[C@H]2c2sccc21` (relative stereo) [Example 101, Trans-8-benzyl-6,6a,7,8,9,9a-hexahydropyrrolo[3,4-e]thieno[3,2-c]azepin-4(5H)-one], the EC50 at 5HT2B receptors (setting [1]) was greater than 10000 nM; on 5HT2C receptors (setting [3]), 400 nM. The values for the Emax result on 5HT2B receptors (setting [2]) and at 5HT2C receptors (read-out: Emax) were “inactive” and greater than 120%, respectively.
Regarding `O=C1NC[C@@H]2CNC[C@H]2c2ccc(-c3ccsc3)cc21` (relative stereo) [Example 184, Trans-8-(thiophen-3-yl)-1,2,3,3a,4,5-hexahydrobenzo[e]pyrrolo[3,4-c]azepin-6(10bH)-one], the EC50 on 5HT2B receptors (setting [1]) was greater than 10000 nM; on 5HT2C receptors (setting [3]) it was 0.3 nM. Further, the Emax result was “inactive” on 5HT2B receptors (setting [2]) and greater than 120% on 5HT2C receptors (read-out: Emax).
As to `O=S(=O)(c1ccccc1)N1Cc2cccnc2[C@@H]2CNC[C@H]2C1` (relative stereo) [Example 338, Trans-6-(phenylsulfonyl)-5,6,7,7a,8,9,10,10a-octahydropyrido[3,2-c]pyrrolo[3,4-e]azepine], the results for the Emax on 5HT2B receptors (CHO-K1) and on 5HT2C receptors were 20% and 80%, respectively. The EC50 at 5HT2B receptors (EC50, 5-HT2B agonist activity) is 800 nM; at 5HT2C receptors (EC50, 5-HT2C agonist activity), 100 nM.
`CC(=O)c1ccc(-c2ccc3c(c2)C(=O)NC[C@@H]2CNC[C@@H]32)s1` (relative stereo) [Example 296, Trans-8-(5-acetyl-2-thienyl)-2,3,3a,4,5,10b-hexahydropyrrolo[3,4-d][2]benzazepin-6(1H)-one]: the results for the EC50 on 5HT2B receptors (setting [1]) and at 5HT2C receptors (setting [3]) were greater than 10000 nM and 1 nM, respectively. For the same compound, the Emax result is “inactive” at 5HT2B receptors (setting [2]) and 100% on 5HT2C receptors (read-out: Emax).
Regarding `c1cncc(-c2cccc3c2OCC[C@H]2CNC[C@H]32)c1` (relative stereo) [Example 368, Trans-7-(pyridin-3-yl)-2,3,3a,4,5,10b-hexahydro-1H-[1]benzoxepino[4,5-c]pyrrole], the maximal response (Emax) at 5HT2B receptors (CHO-K1) is 20%; on 5HT2C receptors, 90%. The EC50 was determined as 1000 nM on 5HT2B receptors (EC50, 5-HT2B agonist activity) and 10 nM on 5HT2C receptors (EC50, 5-HT2C agonist activity).
Taken in the same sequence, the figures for `c1ccc2c(c1)OCC[C@@H]1CNC[C@@H]21` [Example 271, (3aS,10bR)-2,3,3a,4,5,10b-Hexahydro-1H-[1]benzoxepino[4,5-c]pyrrole] were 30%, 120%, 5000 nM and 400 nM.
In the case of `C[C@H](O)c1cc(-c2ccc3c(c2)C(=O)NC[C@H]2CN(C)C[C@H]32)ccc1F` (single isomer, unassigned) [Example 352], the values for the EC50 at 5HT2B receptors (setting [1]) and on 5HT2C receptors (setting [3]) were greater than 10000 nM and 0.4 nM, respectively. The Emax result was “inactive” on 5HT2B receptors (setting [2]) and 105% at 5HT2C receptors (read-out: Emax).
For `O=C1NC[C@@H]2CN(Cc3ccccc3)C[C@H]2c2ccc(OCCc3cccc(F)c3)cc21` (relative stereo) [Example 119, Trans-2-benzyl-8-(3-fluorophenethoxy)-1,2,3,3a,4,5-hexahydrobenzo[e]pyrrolo[3,4-c]azepin-6(10bH)-one], the figures for the EC50 on 5HT2B receptors (setting [1]) and at 5HT2C receptors (setting [3]) were greater than 10000 nM and 100 nM, respectively. Further, the maximum response (Emax) result is “inactive” at 5HT2B receptors (setting [2]) and greater than 120% on 5HT2C receptors (read-out: Emax).
The corresponding values for `Fc1ccc(-c2cccc3c2OCC[C@H]2CNC[C@H]32)cc1` (relative stereo) [Example 399, Trans-7-(4-fluorophenyl)-2,3,3a,4,5,10b-hexahydro-1H-[1]benzoxepino[4,5-c]pyrrole] are greater than 10000 nM, 90 nM, “inactive” and 90%.
For `CC(C)COc1ccc2c(c1)C(=O)NC[C@H]1CNC[C@H]21` [Example 308, (3aR-10bS)-8-Isobutoxy-2,3,3a,4,5,10b-hexahydropyrrolo[3,4-d][2]benzazepin-6(1H)-one], the Emax entry was “inactive” on 5HT2B receptors (setting [2]) and 95% on 5HT2C receptors. Moreover, the EC50 on 5HT2B receptors (EC50, 5-HT2B agonist activity) was greater than 10000 nM; on 5HT2C receptors (EC50, 5-HT2C agonist activity), 3 nM.
